The values below come from patent US4411898A, “7-[2-Oxyimino-2-(2-aminothiazol-4-yl)acetamido]-3-(1-carboxya lkyl-1H-tetrazol-5-yl)thiomethyl-3-cephem-4-carboxylic acid compounds” (Fujisawa Pharmaceutical Co., Ltd., priority 1977, dated 1983).

≈ marks a conversion by molar mass, not a printed value. Structures can show the parent of a compound that is named as a salt.

Common to all, as to experiment: In vitro antibacterial activity, two-fold agar-plate dilution method
What all share (assay type): cell-based
Common to all, as to conditions: HI-agar, 37° C., 20 hours, read-out: minimal inhibitory concentration (MIC)

Assay [1] concerns Proteus vulgaris 2. The method, then:
(§1) In vitro antibacterial activity was determined by the two-fold agar-plate dilution method as described below.
(§2) One loopful of an overnight culture of each test strain in Trypticase-soy broth (10^8 viable cells per ml.) was streaked on heart infusion agar (HI-agar) containing graded concentrations of test compounds, and minimal inhibitory concentration (MIC) was expressed in terms of μg/ml. after incubation at 37° C. for 20 hours.

Assay [2] has as its system Staphylococcus aureus 209P JC-1. As for the experimental part: as §1, §2
In assay [3] the test system is Proteus mirabilis 525. The method, then: as §1, §2
In assay [4] the test system is Klebsiella aerogenes 417. As for the experimental part: as §1, §2
Assay [5] deals with Escherichia coli 324. The method, then:
as §1, §2

Regarding `C=CCON=C(C(=O)NC1C(=O)N2C(C(=O)O)=C(CSc3nnnn3CC(=O)O)CSC12)c1csc(N)n1` (stereo not drawn) [Test Compound (2), 7-[2-Allyloxyimino-2-(2-amino-1,3-thiazol-4-yl)acetamido]-3-(1-carboxymethyl-1H-tetrazol-5-yl)thiomethyl-3-cephem-4-carboxylic acid hydrochloride (syn isomer)], the MIC in assay [1] amounted to 0.78 µg/mL; in assay [2], 12.5 µg/mL.

On to `C#CCON=C(C(=O)NC1C(=O)N2C(C(=O)O)=C(CSc3nnnn3CC(=O)O)CSC12)c1csc(N)n1` (stereo not drawn) [Test Compound (3), 7-[2-(2-Propynyloxyimino)-2-(2-amino-1,3-thiazol-4-yl)acetamido]-3-(1-carboxymethyl-1H-tetrazol-5-yl)thiomethyl-3-cephem-4-carboxylic acid (syn isomer)], for which the MIC was found to be 0.025 µg/mL (≈ 0.0431 µM) in assay [1] and 12.5 µg/mL (≈ 21.6 µM) in assay [2].

With `CON=C(C(=O)NC1C(=O)N2C(C(=O)O)=C(CSc3nnnn3CC(=O)O)CSC12)c1csnn1` (stereo not drawn) [Test Compound (4), 7-[2-Methoxyimino-2-(1,2,3-thiadiazol-4-yl)acetamido]-3-(1-carboxymethyl-1H-tetrazol-5-yl)thiomethyl-3-cephem-4-carboxylic acid (syn isomer)], the MIC in assay [3] worked out at 0.2 µg/mL (≈ 0.369 µM); in assay [4], 0.39 µg/mL (≈ 0.72 µM); in assay [5], 0.2 µg/mL (≈ 0.369 µM).

Regarding `CCCON=C(C(=O)NC1C(=O)N2C(C(=O)O)=C(CSc3nnnn3CC(=O)O)CSC12)c1csc(N)n1` (stereo not drawn) [Test Compound (1), 7-[2-n-Propoxyimino-2-(2-amino-1,3-thiazol-4-yl)acetamido]-3-(1-carboxymethyl-1H-tetrazol-5-yl)thiomethyl-3-cephem-4-carboxylic acid (syn isomer)], the results for the MIC in assay [1] and in assay [2] were 0.39 µg/mL (≈ 0.668 µM) and 12.5 µg/mL (≈ 21.4 µM), respectively.
